Reference: US4698330A, “Somnogenic compositions and method of use” (President & Fellows of Harvard College, priority 1983, dated 1987)
“And” between values parts separate entries of the source, which are not always exact repeats. Equal entries are not always repeated.

Assays:
squirrel monkey = conditions: cited abstract (reference 2); cited from earlier work
rabbits [1] = assay: Intraventricular infusion in rabbits, EEG slow-wave sleep (SWS); conditions: for % SWS, 6 hr post infusion, Expt / % SWS Expt.: hr 2-6 after infusion; for % SWS, 6 hr post infusion, Expt: mean ± SEM or range
Description: Calibrated glass bead thermistors (Fenwall; 1.2-mm outside diameter, 50 omega/°C.) were implanted through burr holes in frontal bone: the thermistor leads were buried in a mound of dental cement that also insulated the screw electrodes and supported a 9-pin miniature electrical connector. In some experiments, the rectal temperatures were measured at intervals by using a calibrated thermistor probe; temperatures estimated from the implanted brain thermistors were generally within 0.3° C. of simultaneously recorded rectal temperature.
New Zealand rabbits (male, 3-5 kg) or domestic cats were adapted to the infusion cages in a temperature-controlled room (21°-2° C.) on a 12:12 light/dark cycle. Intraventricular infusions or systemic injections were carried out between 0800 and 1000 hr and were followed by 6 or more hr of recording without disturbing the animals.
(§3) EEG, electro-oculogram, and bodily movements were recorded on Grass polygraphs. The amplitude of EEG slow waves was recorded as the rms-rectified output from a 0.5- to 4-Hz bandpass filter (Bunco Electronics, Sharon, (T); the rms component was integrated and the integral was printed on tape every 2 min, thus providing an objective measure of the product of amplitude and duration of EEG slow waves. Each record was also analyzed visually for duration of SWS in rabbits and for both SWS and REM sleep in cats. The infusion and recording systems and examples of analysis of records are described in 1, 12, 15.

rabbits [2] = assay: Intraperitoneal injection / stomach tube administration in rabbits, sleep response; format: in vivo, rabbit; conditions: two rabbits, intraperitoneal injection / stomach tube (5 mg/kg)
Description: In two rabbits, sleep responses were recorded after intraperitoneal injection of AcMur-ala-igln by stomach tube (5 mg/kg).

rabbits [3] = assay: Brain/body temperature (pyrogenic response) after intraventricular infusion in rabbits; format: in vivo, rabbit; conditions: for ΔTmax, maximum increase in temperature: intraventricular, brain temperature, single rabbits, listed as AcMur--Ala--iGln
Description: (§1) Acetaminophen (Sigma) was dissolved in sterile pyrogen-free saline.

rabbits [4] = assay: Antipyretic (acetaminophen, indomethacin, aspirin) with AcMur-ala-igln in rabbits, SWS and temperature; format: in vivo; conditions: for hourly % SWS (mean ±SEM): FIG. 5; for suppression of the pyrogenic (febrile) effects of AcMur-ala-igln by the antipyretic: AcMur-ala-igln delivered intravenously in rabbits
Description: as §1
For this reason, the less toxic acetaminophen was used to suppress the pyrogenic effects of AcMur-ala-igln.
In FIG. 5, the symbols mean the following: , AAP alone; , AAP followed by 120 μg of AcMur-ala-igln intravanously at time zero. Each value is mean ±SEM of six assays in six rabbits. In A, the average of the individual increases (ΔT values) in rectal temperature induced by AcMur-ala-igln together with AAP is compared with that induced by AAP alone in each of six rabbits.

cats [5] = assay: Intraventricular infusion in cats, SWS, REM sleep and brain temperature; format: in vivo, cat; conditions: intraventricular 200-500 pmol, four cats
Description: as §1
Each of four cats was infused intraventricularly one or more times with AcMur-ala-igln or AcMur-ala-igln-lys (200-500 pmol). The responses were more complex than those in rabbits. […] Only after the febrile response had reached its peak did the cats start to sleep for abnormally long periods in deep stage II SWS alternating with periods of REM sleep. The SWS and temperature responses of one cat to 250 pmol of AcMur-ala-igln-lys delivered intraventricularly during 15 min prior to start of recording is shown in FIG. 3. […] A similar delay in the onset of excess SWS was noted by Garcia-Arraras (12) after infusion of natural sleep factor in cats.
Excess SWS induced by AcMur-ala-igln-lys lasted for 3-8 hr after infusion. (A) - - - , Control=37.7 plus or minus 0.2° C. (B) - - - , Control=27 plus or minus 5%. Similar responses were observed following one or more infusions of AcMur-ala-igln or AcMur-ala-igln-lys in each of four cats.

rabbits [6] = assay: Intravenous injection in rabbits, SWS and side effects
Description: New Zealand rabbits (male, 3-5 kg) or domestic cats were adapted to the infusion cages in a temperature-controlled room (21°-2° C.) on a 12:12 light/dark cycle. Intraventricular infusions or systemic injections were carried out between 0800 and 1000 hr and were followed by 6 or more hr of recording without disturbing the animals. […] Indomethacin for intravenous injection was dissolved in a small amount of EtOH and diluted with 150 mM NaHCO3 to a concentration of 5 mg/ml. Acetaminophen (Sigma) was dissolved in sterile pyrogen-free saline.
as §3
Each value is mean ±SEM of 11 assays in eight rabbits.

cats [7] = assay: Toxic reactions to indomethacin alone in cats; format: in vivo, cat; conditions: doses as low as 1 mg/kg
Description: (§2) The time course of the pyrogenic response to AcMur-ala-igln was sometimes quite different from that of the somnogenic response and, in some animals, the natural muramyl peptide isolated from urine induced substantial excess SWS without significant alteration of temperature. […] In preliminary experiments, indomethacin was used as an antipyretic because Parant et al. (7) had shown that this drug (in doses of 40 mg/kg) was effective in blocking the pyrogenic response to intravanously administered AcMur-ala-igln. […] For this reason, the less toxic acetaminophen was used to suppress the pyrogenic effects of AcMur-ala-igln. The results for six rabbits injected intravanously with AcMur-ala-igln at 120 μg/kg 30 min after intravanous injection of acetaminophen at 10 mg/kg are summarized in FIG. 5. It is clear that, under these conditions a substantial somnogenic effect was obtained for 3 to 4 hr with only a weak associated febrile response. In some animals, there was no significant increase in temperature during the sleep response.

rabbits [8] = assay: Toxic reactions to indomethacin alone in rabbits; format: in vivo, rabbit; conditions: doses as low as 1 mg/kg
Description: as §2

[9] = intraventricular, dose 1.0 nmol
[10] = much smaller doses delivered intraventricularly
[11] = intraventricular, dose 0.5 nmol
[12] = intraventricular, dose 0.2 nmol
[13] = intraventricular, dose 2.0 nmol

SMILES: CC(=O)N[C@@H]1[C@@H](O[C@H](C)C(=O)N[C@@H](C)C(=O)N[C@H](CCC(=O)O)C(N)=O)[C@H](O)[C@@H](CO)O[C@H]1O [MDP, 2-(2-acetamido-2-desoxy-3-O-D-glucopyranosyl)-D-propionyl-L-alanyl-D-isoglutamine]
- effect on non-REM and REM sleep (squirrel monkey): induces non-REM but not REM sleep
- number of episodes of SWS having durations of 1-8 min (rabbits [1]; hr 2 to hr 6 after administration, eight rabbits, FIG. 2): no significant effect
- number of episodes of SWS having durations greater than 8 min (rabbits [1]; hr 2 to hr 6 after administration, eight rabbits, FIG. 2, P<0.0125): increased
- amount required to induce a comparable increase of SWS for 6 hr, relative to the natural product (factor S) (rabbits [1]; intraventricular): roughly 10 times
- hourly percentage of SWS (rabbits [1]; intraventricular 75-150 pmol, for 6 hr or more after the infusion, control about 40%): about 60%
- persistence of the effects (rabbits [1]; intraventricular infusion): 6 to 12 h
- % SWS, 6 hr post infusion, Expt (rabbits [1]; intraventricular, dose 0.01 nmol): 39 ± 4%
- % SWS, 6 hr post infusion, Expt (rabbits [1]; intraventricular, dose 0.05 nmol): 49 ± 3%
- % SWS Expt. (rabbits [1]; intraventricular, dose 75 pmol, single rabbits, listed as AcMur--Ala--iGln): 55% and 43%
- % SWS, 6 hr post infusion, Expt (rabbits [1]; intraventricular, dose 0.1 nmol): 62 ± 7%
- % SWS Expt. (rabbits [1]; intraventricular, dose 120 pmol, single rabbits, listed as AcMur--Ala--iGln): 94% and 69%
- Amplitude of slow wave, Expt. (rabbits [1]; intraventricular, dose 120 pmol, rms-rectified voltage of 0.5 to 4 Hz band, single rabbits, listed as AcMur--Ala--iGln): 56 μV and 42 μV
- % SWS Expt. (rabbits [1]; intraventricular, dose 125 pmol, single rabbits, listed as AcMur--Ala--iGln): 38% and 60%
- % SWS, 6 hr post infusion, Expt (rabbits [1]; [9]): 76 ± 7%
- % SWS, 6 hr post infusion, Expt (rabbits [1]; intraventricular, dose 10.0 nmol): 65 ± 6%
- deleterious effects (rabbits [1]; [10]): did not cause deleterious effects
- duration of excess SWS (rabbits [1]; [10]): 6 to 10 h
- increase of SWS for 6 hr (rabbits [2]): ca. 50%
- average ΔT (rabbits [3]; AcMur-ala-igln alone (Table 1)): 1.9±0.2 °C
- ΔTmax, maximum increase in temperature (rabbits [3]; dose 75 pmol): 2.8 °C and 1.6 °C
- ΔTmax, maximum increase in temperature (rabbits [3]; dose 125 pmol): 1.1 °C and 1.5 °C
- hourly % SWS (mean ±SEM) (rabbits [4]; AAP 10 mg/kg i.v. followed 30 min later by AcMur-ala-igln 120 μg i.v., six rabbits): 67±3%
- time after which toxic reactions developed (rabbits [4]; AcMur-ala-igln 120 μg/kg i.v. after acetaminophen 10 mg/kg i.v.): about 4 hr
- average ΔT, rectal temperature (rabbits [4]; AcMur-ala-igln i.v. with AAP, six rabbits): less than 0.7 °C
- REM sleep during 2-4 hr after the infusion (cats [5]): completely suppressed
- SWS after the initial period of sleep suppression (cats [5]): abnormally long period of deep SWS
- time of return of sleep response to near control values (rabbits [6]; intravenous 150-200 nmol/kg): ≤ 5 h
- time of maximum sleep response after injection (rabbits [6]; intravenous 150-200 nmol/kg (75-100 μg), FIG. 4): about 3 hr
- side effects noted in some animals (rabbits [6]; intravenous 150-200 nmol/kg, after 3 to 4 hr): abnormal lacrimation, nasal secretion, and inflammation
- time after which deleterious side effects occurred (rabbits [6]; intravenous, doses sufficient to induce excess SWS and pyrexia): about 3 hr

SMILES: COC(=O)[C@@H](CCC(N)=O)NC(=O)[C@H](C)NC(=O)[C@@H](C)O[C@H]1[C@H](O)[C@@H](CO)OC(O)[C@@H]1NC(C)=O (stereo partly drawn) [NAc--Mur--L-ala-D-gln-alpha OMe]
- % SWS, 6 hr post infusion, Expt (rabbits [1]; [11]): 31-45%

SMILES: CC(=O)N[C@H]1C(O)O[C@H](CO)[C@@H](O)[C@@H]1O[C@H](C)C(=O)O (some centres unmarked) [N-acetylmuramic acid, reference compound]
- somnogenic effect (rabbits [1]; summary of Table 2, intraventricular, rabbits): no effect

SMILES: CC(=O)N[C@H]1C(O)O[C@H](CO)[C@@H](O)[C@@H]1O[C@H](C)C(=O)N(C)[C@@H](C)C(=O)N[C@H](CCC(=O)O)C(N)=O (stereo partly drawn) [NAc--Mur--(N--Me)--L-ala-D-igln]
- % SWS, 6 hr post infusion, Expt (rabbits [1]; [12]): 32-47%

SMILES: CCCCOC(=O)[C@@H](CCC(N)=O)NC(=O)[C@H](C)NC(=O)[C@@H](C)O[C@H]1[C@H](O)[C@@H](CO)OC(O)[C@@H]1NC(C)=O (stereo partly drawn) [NAc--Mur--L-ala-D-gln-n-Bu ester]
- % SWS, 6 hr post infusion, Expt (rabbits [1]; intraventricular, dose 0.25 nmol): 41-47%

SMILES: CC(=O)N[C@H]1C(O)O[C@H](CO)[C@@H](O)[C@@H]1O[C@H](C)C(=O)N[C@@H](C)C(=O)N[C@H](CCC(=O)N[C@@H](CCC[C@@H](N)C(=O)O)C(=O)N[C@H](C)C(=O)N[C@H](C)C(=O)O)C(=O)O (stereo partly drawn) [NAc-Mur-L-ala-gamma-D-glu-m-DAP-D-ala-D-ala]
- % SWS, 6 hr post infusion, Expt (rabbits [1]; intraventricular, dose 0.15 nmol): 46 ± 3%
- % SWS, 6 hr post infusion, Expt (rabbits [1]; [12]): 65 ± 5%

SMILES: COC(=O)CC[C@@H](NC(=O)[C@H](C)NC(=O)C(C)O[C@H]1[C@H](O)[C@@H](CO)O[C@H](O)[C@@H]1NC(C)=O)C(=O)OC (stereo partly drawn) [NAc--Mur--L-ala-D-glu(OMe)--OMe, NAc-Mur-L-ala-D-glu(OMe)-OMe]
- % SWS, 6 hr post infusion, Expt (rabbits [1]; [13]): 66 ± 4%

SMILES: CC(=O)Oc1ccccc1C(=O)O [aspirin, acetyl salicylic acid]
- suppression of the pyrogenic (febrile) effects of AcMur-ala-igln by the antipyretic (rabbits [4]): like suppression of the febrile response

SMILES: CC(=O)NC1C(O)OC(CO)C(O)C1OC(C)C(=O)NC(C)C(=O)NC(CCC(=O)O)C(N)=O [NAc--Mur--D-ala-D-igln]
- % SWS, 6 hr post infusion, Expt (rabbits [1]; [11]): 35 ± 2%
- % SWS, 6 hr post infusion, Expt (rabbits [1]; [9]): 35 ± 2%

SMILES: CC(=O)Nc1ccc(O)cc1 [acetaminophen]
- effects on sleep or rectal temperature (rabbits [4]; AAP alone): no significant effects
- hourly % SWS (mean ±SEM) (rabbits [4]; AAP alone, 10 mg/kg intravenous, six rabbits): 41±3%
- suppression of the pyrogenic (febrile) effects of AcMur-ala-igln by the antipyretic (rabbits [4]): completely or partially suppressed

SMILES: CC(=O)N[C@H]1C(O)O[C@H](CO)[C@@H](O)[C@@H]1O[C@H](C)C(=O)N[C@@H](C)C(=O)N[C@H](CCC(N)=O)C(=O)O (stereo partly drawn) [NAc--Mur--L-ala-D-gln, NAc-Mur-L-ala-D-gln]
- % SWS, 6 hr post infusion, Expt (rabbits [1]; [13]): 45 ± 1%
- % SWS, 6 hr post infusion, Expt (rabbits [1]; intraventricular, dose 20.0 nmol): 58-66%

SMILES: CC(=O)N[C@H]1C(O)O[C@H](CO)[C@@H](O)[C@@H]1O[C@H](C)C(=O)N[C@@H](C)C(=O)N[C@H](CCC(N)=O)C(N)=O (stereo partly drawn) [NAc--Mur--L-ala-D-glu(NH2)--NH2]
- % SWS, 6 hr post infusion, Expt (rabbits [1]; [13]): 43 ± 1%

SMILES: COC(=O)[C@@H](CCC(=O)O)NC(=O)[C@H](C)NC(=O)[C@@H](C)O[C@H]1[C@H](O)[C@@H](CO)OC(O)[C@@H]1NC(C)=O (stereo partly drawn) [NAc--Mur--L-ala-D-glu-alpha-OMe, NAc-Mur-L-ala-D-glu-alpha-OMe]
- % SWS, 6 hr post infusion, Expt (rabbits [1]; [12]): 47-61%
- % SWS, 6 hr post infusion, Expt (rabbits [1]; [13]): 72 ± 4%

SMILES: CC(=O)NC1C(OC2C(CO)OC(O)C(NC(C)=O)C2OC(C)C(=O)NC(C)C(=O)NC(CCC(=O)O)C(N)=O)OC(CO)C(O)C1O (centres unmarked) [Nac--glc-1,4-MDP, NAc-glucosaminyl-(1,4)-MDP]
- % SWS, 6 hr post infusion, Expt (rabbits [1]; [12]): 60 ± 5%

SMILES: COc1ccc2c(c1)c(CC(=O)O)c(C)n2C(=O)c1ccc(Cl)cc1 [indomethacin]
- toxic reactions (diarrhea, lethargy, inhibition of normal sleep) (cats [7]): toxic reactions
- toxic reactions (diarrhea, lethargy, inhibition of normal sleep) (rabbits [8]): toxic reactions
- blocking of the pyrogenic or somnogenic effects of intraventricularly administered AcMur-ala-igln (rabbits [4]; indomethacin: 10 out of 10 trials in six rabbits, acetaminophen: two rabbits): did not block

SMILES: CC(=O)N[C@H]1C(O)O[C@H](CO)[C@@H](O)[C@@H]1O[C@H](C)C(=O)N[C@@H](C)C(=O)N[C@H](CCC(=O)O)C(=O)O (stereo partly drawn) [NAc--Mur--L-ala-D-glu, NAc-Mur-L-ala-D-glu]
- % SWS, 6 hr post infusion, Expt (rabbits [1]; [12]): 43 ± 3%
- % SWS, 6 hr post infusion, Expt (rabbits [1]; [13]): 51 ± 3%

SMILES: COC(=O)CC[C@@H](NC(=O)[C@H](C)NC(=O)[C@@H](C)O[C@H]1[C@H](O)[C@@H](CO)OC(O)[C@@H]1NC(C)=O)C(N)=O (stereo partly drawn) [NAc--Mur--L-ala-D-igln-gamma-OMe, NAc-Mur-L-ala-D-igln-gamma-OMe]
- % SWS, 6 hr post infusion, Expt (rabbits [1]; [13]): 56 ± 7%

SMILES: CC(=O)N[C@H]1C(O)O[C@H](CO)[C@@H](O)[C@@H]1O[C@H](C)C(=O)N[C@@H](C)C(=O)N[C@@H](CCC(=O)O)C(N)=O (stereo partly drawn) [NAc--Mur--L-ala-L-igln]
- % SWS, 6 hr post infusion, Expt (rabbits [1]; [12]): 38 ± 4%
